Measured values taken from patent US20240287079A1, “6-AMINOPYRAZOLOPYRIMIDINE COMPOUND AND PHARMACEUTICAL USE THEREOF” (Japan Tobacco Inc., priority 2021, published 2024).

Molecular target: NLRP3 inflammasome (Homo sapiens (Human), UniProt Q96P20)
Experiment: Evaluation of NLRP3 inflammasome inhibitory activity (inhibition of IL-1β production in LPS/Nigericin-stimulated THP1-Null cells)
Assay type: cell-based
Conditions: IL-1β production in THP1-Null cells, PMA, LPS 1 μg/mL, Nigericin 7.5 μmol/L, AlphaLISA
Method: The NLRP3 inflammasome inhibitory activity of test compounds were evaluated on the basis of the inhibitory activity of the IL-1β production in THP1-Null cells (Product Number: thp-null, InvivoGen). […] The supernatant of the culture was removed, and thereto was added media for assay (25 μL/well) containing 1 μg/mL Lipopolysaccharides (Product Number: L2654, Sigma-Aldrich (registered trademark)). […] The supernatant of the culture was removed. […] A solution containing a test compound (20 μL/well) was added to test compound-setting wells. […] The supernatant of the culture was cryonically stored (set at −20° C.) until measurement of IL-1β.
The amount of IL-1β in the culture supernatant was quantitated with AlphaLISA(registered trademark) Human IL-1β Detection Kit (Product Number: AL220C, Perkin Elmer). Fluorescence intensity was measured with a microplate reader EnSpier (Model number: 2300-00J, Perkin Elmer) or EnSight(Model number: HH34000000, Perkin Elmer) according to procedure manuals attached thereto. Inhibition rates of the test compound-setting wells were calculated on the basis of 100% for the blank-setting wells and 0% for the control-setting wells.

NLRP3 inflammasome, sequence (Q96P20 whole entry): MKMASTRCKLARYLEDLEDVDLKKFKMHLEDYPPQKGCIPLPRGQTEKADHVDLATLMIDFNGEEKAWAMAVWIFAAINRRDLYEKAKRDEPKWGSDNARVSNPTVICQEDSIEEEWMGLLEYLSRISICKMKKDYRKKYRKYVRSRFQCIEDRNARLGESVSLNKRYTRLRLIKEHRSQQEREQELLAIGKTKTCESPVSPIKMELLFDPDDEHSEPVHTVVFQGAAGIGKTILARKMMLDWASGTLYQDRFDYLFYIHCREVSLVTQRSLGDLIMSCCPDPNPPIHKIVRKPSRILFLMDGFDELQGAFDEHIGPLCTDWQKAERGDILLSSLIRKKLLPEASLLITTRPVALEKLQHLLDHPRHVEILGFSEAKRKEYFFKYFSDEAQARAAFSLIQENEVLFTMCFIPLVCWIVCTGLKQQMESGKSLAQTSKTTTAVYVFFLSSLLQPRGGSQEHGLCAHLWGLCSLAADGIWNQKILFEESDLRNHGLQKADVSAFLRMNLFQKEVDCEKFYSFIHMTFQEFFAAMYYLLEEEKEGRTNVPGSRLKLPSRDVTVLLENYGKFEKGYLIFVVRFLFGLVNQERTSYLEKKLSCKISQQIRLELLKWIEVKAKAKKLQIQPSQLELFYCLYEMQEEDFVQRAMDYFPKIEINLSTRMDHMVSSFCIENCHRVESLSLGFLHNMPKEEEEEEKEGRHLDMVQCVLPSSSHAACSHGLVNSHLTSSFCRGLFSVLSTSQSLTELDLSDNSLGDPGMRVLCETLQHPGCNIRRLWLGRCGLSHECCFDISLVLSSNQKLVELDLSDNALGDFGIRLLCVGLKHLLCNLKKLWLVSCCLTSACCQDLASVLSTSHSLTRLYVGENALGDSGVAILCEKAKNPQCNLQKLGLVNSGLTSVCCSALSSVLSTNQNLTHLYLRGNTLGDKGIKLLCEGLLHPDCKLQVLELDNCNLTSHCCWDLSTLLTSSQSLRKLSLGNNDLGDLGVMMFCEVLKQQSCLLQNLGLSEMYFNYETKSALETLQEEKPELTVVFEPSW

| Structure (SMILES) | IC50 [nM] |
| --- | --- |
| CCC(C)n1nc(C)c(-n2cc3c(=O)[nH]c(N4CCCC4)nc3n2)c1C (racemic) [Example 347] | 920 |
| Cc1cc(Cl)cc(C(C)C)c1-n1cc2c(=O)[nH]c(N3CCOCC3)nc2n1 (racemic) [Example 188] | 89 |
| Cc1cccc(C)c1-n1cc2c(=O)[nH]c(N3CC(OCC(F)(F)F)C3)nc2n1 [Example 51] | 2200 |
| Cc1cc(OC(F)(F)F)cc(C)c1-n1cc2c(=O)[nH]c(N3CCOCC3)nc2n1 [Example 200] | 29 |
| O=c1[nH]c(N2CCOCC2)nc2nn(-c3ccc(C4CC4)cc3C3CC3)cc12 [Example 210] | 7.3 |
| CC(=O)NC1CCN(c2nc3nn(-c4c(C)cc(C)cc4C)cc3c(=O)[nH]2)C1 (racemic) [Example 111] | 56 |
| O=c1[nH]c(N2CCCC2)nc2nn(-c3ccccc3Cl)cc12 [Example 1] | 340 |
| O=c1[nH]c(N2C[C@H]3C[C@@H]2CO3)nc2nn(-c3ccc(Br)cc3C(O)C3CC3)cc12 (stereo partly drawn) [Example 309] | 110 |
| COCCN(C)c1nc2nn(-c3c(C)cc(Br)cc3C)cc2c(=O)[nH]1 [Example 337] | 47 |
| Cc1cc(C2CC2)cc(C)c1-n1cc2c(=O)[nH]c(N3CC4CC(C3)O4)nc2n1 [Example 232] | 6 |
| COc1cc(Cl)ccc1-n1cc2c(=O)[nH]c(N3CCCC3)nc2n1 [Example 205] | 32 |
| Cc1cc(Br)ccc1-n1cc2c(=O)[nH]c(N3Cc4ccccc4C3)nc2n1 [Example 75] | 14 |
| O=c1[nH]c(N2CCCC2)nc2nn(-c3ccc(Cl)cc3C(F)(F)F)cc12 [Example 218] | 5.7 |
| Cc1cc(Br)ccc1-n1cc2c(=O)[nH]c(N3CCN(S(C)(=O)=O)CC3)nc2n1 [Example 91] | 6.7 |
| Cc1cc(C)c(-n2cc3c(=O)[nH]c(N4CC5COCC5C4)nc3n2)c(C)c1 (stereo not drawn) [Example 117] | 46 |
| COc1cc(C)c(-n2cc3c(=O)[nH]c(N4CCCC4)nc3n2)c(C)c1 [Example 345] | 16 |
| Cc1cccc(C)c1-n1cc2c(=O)[nH]c(N3CCCC3)nc2n1 [Example 11] | 200 |
| Cc1cc(C2CC2)cc(C)c1-n1cc2c(=O)[nH]c(N3CCC3)nc2n1 [Example 328] | 5.8 |
| Cc1cc(Br)cc(C)c1-n1cc2c(=O)[nH]c(N3CCOCC3O)nc2n1 (racemic) [Example 363] | 2.9 |
| Cc1cc(Br)cc(C)c1-n1cc2c(=O)[nH]c(N3CC4CC(C3)O4)nc2n1 [Example 211] | 4.6 |
| Cc1cc(C2CC2)cc(C)c1-n1cc2c(=O)[nH]c(N3CCOC[C@H]3C)nc2n1 [Example 275] | 8.5 |
| Cc1ccc(C(F)(F)F)c(-n2cc3c(=O)[nH]c(N4CCOCC4)nc3n2)c1 [Example 341] | 270 |
| Cc1cc(Br)cc(C)c1-n1cc2c(=O)[nH]c(N3CCC[C@H]3C)nc2n1 [Example 284] | 12 |
| Cc1cc(Br)cc(C(F)(F)F)c1-n1cc2c(=O)[nH]c(N3CCOCC3)nc2n1 [Example 174] | 12 |
| Cc1cc(Br)ccc1-n1cc2c(OC(C)C)nc(N3CCOCC3)nc2n1 [Example 136] | 230 |

| Structure (SMILES) | IC50 [nM] |
| --- | --- |
| Cc1cc(C2CC2)cc(C)c1-n1cc2c(=O)[nH]c(N3CCCC3)nc2n1 [Example 286] | 4.2 |
| Cc1cc(Cl)ccc1-n1cc2c(=O)[nH]c(N3CCOCC3)nc2n1 [Example 164] | 29 |
| Cc1cc(OC(F)F)cc(C)c1-n1cc2c(=O)[nH]c(N3CCOCCO3)nc2n1 [Example 352] | 68 |
| COC[C@@H]1CCCN1c1nc2nn(-c3ccccc3C)cc2c(=O)[nH]1 [Example 42] | 4200 |
| Cc1cc(Br)cc(Cl)c1-n1cc2c(=O)[nH]c(N3CC4CC(C3)O4)nc2n1 [Example 296] | 14 |
| CC(C)Oc1cc(Br)ccc1-n1cc2c(=O)[nH]c(N3CCOCC3)nc2n1 [Example 303] | 88 |
| CC(O)c1cc(Br)ccc1-n1cc2c(=O)[nH]c(N3CCOCC3)nc2n1 (racemic) [Example 130] | 63 |
| Cc1cc(C2CC2)cc(C(F)(F)F)c1-n1cc2c(=O)[nH]c(N3CCOCC3)nc2n1 [Example 175] | 13 |
| CCCCNc1nc2nn(-c3ccccc3C)cc2c(=O)[nH]1 [Example 61] | 680 |
| Cc1cc(C(F)(F)F)cc(C)c1-n1cc2c(=O)[nH]c(N3CC4CC(C3)O4)nc2n1 [Example 277] | 16 |
| O=c1[nH]c(N2C[C@H]3C[C@@H]2CO3)nc2nn(-c3ccc(Br)cc3C(F)(F)F)cc12 [Example 259] | 23 |
| Cc1cc(Br)ccc1-n1cc2c(=O)[nH]c(N3CC4CC(C3)O4)nc2n1 [Example 169] | 17 |
| Cc1cc(Br)cc(C)c1-n1cc2c(=O)[nH]c(N3CCC(C(C)(C)O)C3)nc2n1 (racemic) [Example 194] | 24 |
| Cc1ccccc1-n1cc2c(=O)[nH]c(N3CCC(F)(F)C3)nc2n1 [Example 12] | 380 |
| Cc1cc(C2CC2)ccc1-n1cc2c(=O)[nH]c(N3CCOCC3)nc2n1 [Example 242] | 24 |
| Cc1cccc(-n2cc3c(=O)[nH]c(N4CCCC4)nc3n2)c1 [Example 43] | 3400 |
| Cc1cc(Br)cc(C)c1-n1cc2c(=O)[nH]c(N3CCOCCO3)nc2n1 [Example 339] | 37 |
| CC(C)c1ccccc1-n1cc2c(=O)[nH]c(N3CCCC3)nc2n1 [Example 31] | 540 |
| Cc1ccc(C)c(-n2cc3c(=O)[nH]c(N4CCCC4)nc3n2)c1 [Example 46] | 290 |
| Cc1ccccc1-n1cc2c(=O)[nH]c(N(C)C(C)C)nc2n1 [Example 23] | 1900 |
| Cc1cc(Br)ccc1-n1cc2c(=O)[nH]c(N3CC4(COC4)C3)nc2n1 [Example 191] | 35 |
| O=c1[nH]c(N2CCCC2)nc2nn(-c3ccc(C(F)(F)F)cc3Cl)cc12 [Example 86] | 2.9 |
| Cc1ccc(-n2cc3c(=O)[nH]c(N4CCOCC4)nc3n2)c(C)c1 [Example 126] | 53 |
| O=c1[nH]c(N2CCOCC2)nc2nn(-c3ccc(Br)cc3C(O)C3CC3)cc12 (racemic) [Example 150] | 16 |
| Cc1ccc(-n2cc3c(=O)[nH]c(N4CCCC4)nc3n2)c(C)c1 [Example 45] | 70 |

| Structure (SMILES) | IC50 [nM] |
| --- | --- |
| O=c1[nH]c(N2CCCC2)nc2nn(-c3cccc4ccccc34)cc12 [Example 68] | 1200 |
| Cc1cc(C)c(-n2cc3c(=O)[nH]c(N4CCOCC4)nc3n2)c(C)c1 [Example 96] | 14 |
| Cc1cc(Br)cc(C)c1-n1cc2c(=O)[nH]c(N(C)C(C)C)nc2n1 [Example 291] | 16 |
| COC1CN(c2nc3nn(-c4ccccc4C)cc3c(=O)[nH]2)C1 [Example 33] | 2300 |
| O=c1[nH]c(N2CCOCC2)nc2nn(-c3ccc(OC(F)F)cc3C(F)(F)F)cc12 [Example 325] | 31 |
| COC1CCN(c2nc3nn(-c4c(C)cc(C)cc4C)cc3c(=O)[nH]2)C1 (racemic) [Example 93] | 9.1 |
| CC(C)(C)OC(=O)N1CC2CN(c3nc4nn(-c5ccc(C(F)(F)F)cc5Cl)cc4c(=O)[nH]3)CC2C1 (stereo not drawn) [Example 179] | 27 |
| Cc1cc(C2CC2)cc(C)c1-n1cc2c(=O)[nH]c(N3C[C@@H]4C[C@H]3CO4)nc2n1 [Example 207] | 5.9 |
| CONc1nc2nn(-c3c(C)cc(Br)cc3C)cc2c(=O)[nH]1 [Example 336] | 28 |
| O=c1[nH]c(N2CCCC2CO)nc2nn(-c3ccc(C(F)(F)F)cc3Cl)cc12 (racemic) [Example 178] | 33 |
| CC(C)c1cc(C(F)(F)F)cnc1-n1cc2c(=O)[nH]c(N3CCOCC3)nc2n1 [Example 236] | 730 |
| Cc1cc(C2CC2)cc(C)c1-n1cc2c(=O)[nH]c(N3CCCCO3)nc2n1 [Example 333] | 49 |
| CCCN(C)c1nc2nn(-c3ccccc3C)cc2c(=O)[nH]1 [Example 18] | 12000 |
| Cc1cc(Br)cc(C)c1-n1cc2c(=O)[nH]c(N3CCC[C@@H]3C)nc2n1 [Example 285] | 27 |
| Cc1cc(C2CC2)cc(C)c1-n1cc2c(=O)[nH]c(N3C[C@H]4C[C@@H]3CO4)nc2n1 [Example 209, 6-((1R,4R)-2-oxa-5-azabicyclo[2.2.1]heptan-5-yl)-2-(4-cyclopropyl-2,6-dimethylphenyl)-2,5-dihydro-4H-pyrazolo[3,4-d]pyrimidin-4-one] | 5.1 |
| O=c1[nH]c(NC2CCOCC2)nc2nn(-c3ccc(C(F)(F)F)cc3Cl)cc12 [Example 184] | 67 |
| Cc1cc(C)c(-n2cc3c(=O)[nH]c(N4CCCOCC4)nc3n2)c(C)c1 [Example 100] | 20 |
| Cc1ccccc1-n1cc2c(=O)[nH]c(N3CCC(c4ccccc4)C3)nc2n1 (racemic) [Example 27] | 1200 |
| Cc1cc(Br)ccc1-n1cc2c(=O)[nH]c(N3CCCC3)nc2n1 [Example 62] | 9.1 |
| COc1cc(Br)ccc1-n1cc2c(=O)[nH]c(N3CCOCC3)nc2n1 [Example 304] | 65 |
| Cc1cc(Br)cc(C)c1-n1cc2c(=O)[nH]c(N3CCCCCO3)nc2n1 [Example 338] | 25 |
| Cc1cc(Br)cc(C)c1-n1cc2c(=O)[nH]c(N3CC4CCC(C3)O4)nc2n1 [Example 278] | 7.9 |
| Cc1ccccc1-n1cc2c(=O)[nH]c(N3CC(F)(F)C3)nc2n1 [Example 34] | 470 |

Same assay, conditions: IL-1β production in THP1-Null cells; test compound 0.0024 μM

| Structure (SMILES) | inhibition at 0.0024 µM [%] |
| --- | --- |
| Cc1cc(C(F)(F)F)cc(C)c1-n1cc2c(=O)[nH]c(N3CCOC[C@H]3C)nc2n1 [Example 251] | 65 |
| Cc1cc(C2CC2)cc(Cl)c1-n1cc2c(=O)[nH]c(N3CCOCC3)nc2n1 [Example 147] | 54 |
